Laboratory results: PubChem BioAssay AID1259407 (Chemical Carcinogenesis Research Information System (CCRIS), 2018)
Activity calls are given as the source filed them. No rule for the calls is given here.

System: CCRIS mutagenicity, Ames/micronucleus/aberration tests
Test: CCRIS mutagenicity studies
[1] = Test System: AMES SALMONELLA TYPHIMURIUM, Strain/Indicator: TA98, Metabolic Activation: NONE, Method: STANDARD PLATE
[2] = Test System: AMES SALMONELLA TYPHIMURIUM, Strain/Indicator: TA98, Metabolic Activation: RAT, LIVER, S-9, AROCLOR 1254, Method: STANDARD PLATE
[3] = Test System: AMES SALMONELLA TYPHIMURIUM, Strain/Indicator: TA100, Metabolic Activation: NONE, Method: STANDARD PLATE
[4] = Test System: AMES SALMONELLA TYPHIMURIUM, Strain/Indicator: TA1535, Metabolic Activation: NONE, Method: STANDARD PLATE
[5] = Test System: AMES SALMONELLA TYPHIMURIUM, Strain/Indicator: TA1537, Metabolic Activation: NONE, Method: STANDARD PLATE

## CN(C)CCO
Test System: AMES SALMONELLA TYPHIMURIUM, Strain/Indicator: TA97, Metabolic Activation: HAMSTER, LIVER, AROCLOR 1254 (10 OR 30%), Method: PREINCUBATION
  mutagenic call: inactive; negative
Test System: AMES SALMONELLA TYPHIMURIUM, Strain/Indicator: TA97, Metabolic Activation: NONE, Method: PREINCUBATION
  mutagenic call: inactive; negative
Test System: AMES SALMONELLA TYPHIMURIUM, Strain/Indicator: TA97, Metabolic Activation: RAT, LIVER, S-9, AROCLOR 1254 (10 OR 30%), Method: PREINCUBATION
  mutagenic call: inactive; negative
Test System: AMES SALMONELLA TYPHIMURIUM, Strain/Indicator: TA98, Metabolic Activation: HAMSTER, LIVER, S-9, AROCLOR 1254 (10%), Method: PREINCUBATION
  mutagenic call: inactive; negative
Test System: AMES SALMONELLA TYPHIMURIUM, Strain/Indicator: TA98, Metabolic Activation: HAMSTER, LIVER, S-9, AROCLOR 1254 (30%), Method: PREINCUBATION
  mutagenic call: inactive; negative
Test System: AMES SALMONELLA TYPHIMURIUM, Strain/Indicator: TA98, Metabolic Activation: NONE, Method: PREINCUBATION
  mutagenic call: inactive; negative
[1]
  mutagenic call: inactive; negative
Test System: AMES SALMONELLA TYPHIMURIUM, Strain/Indicator: TA98, Metabolic Activation: RAT, LIVER, S-9, AROCLOR 1254 (10%), Method: PREINCUBATION
  mutagenic call: inactive; negative
Test System: AMES SALMONELLA TYPHIMURIUM, Strain/Indicator: TA98, Metabolic Activation: RAT, LIVER, S-9, AROCLOR 1254 (30%), Method: PREINCUBATION
  mutagenic call: inactive; negative
[2]
  mutagenic call: inactive; negative
Test System: AMES SALMONELLA TYPHIMURIUM, Strain/Indicator: TA100, Metabolic Activation: HAMSTER, LIVER, S-9, AROCLOR 1254 (10%), Method: PREINCUBATION
  mutagenic call: inactive; negative
Test System: AMES SALMONELLA TYPHIMURIUM, Strain/Indicator: TA100, Metabolic Activation: HAMSTER, LIVER, S-9, AROCLOR 1254 (30%), Method: PREINCUBATION
  mutagenic call: inactive; negative
Test System: AMES SALMONELLA TYPHIMURIUM, Strain/Indicator: TA100, Metabolic Activation: NONE, Method: PREINCUBATION
  mutagenic call: inactive; negative
[3]
  mutagenic call: inactive; negative
Test System: AMES SALMONELLA TYPHIMURIUM, Strain/Indicator: TA100, Metabolic Activation: RAT, LIVER, S-9, AROCLOR 1254 (10%), Method: PREINCUBATION
  mutagenic call: inactive; negative
Test System: AMES SALMONELLA TYPHIMURIUM, Strain/Indicator: TA100, Metabolic Activation: RAT, LIVER, S-9, AROCLOR 1254 (30%), Method: PREINCUBATION
  mutagenic call: inactive; negative
Test System: AMES SALMONELLA TYPHIMURIUM, Strain/Indicator: TA100, Metabolic Activation: RAT, LIVER, S-9, AROCLOR 1254, Method: STANDARD PLATE
  mutagenic call: inactive; negative
Test System: AMES SALMONELLA TYPHIMURIUM, Strain/Indicator: TA1535, Metabolic Activation: HAMSTER, LIVER, S-9, AROCLOR 1254 (10%), Method: PREINCUBATION
  mutagenic call: inactive; negative
Test System: AMES SALMONELLA TYPHIMURIUM, Strain/Indicator: TA1535, Metabolic Activation: HAMSTER, LIVER, S-9, AROCLOR 1254 (30%), Method: PREINCUBATION
  mutagenic call: inactive; negative
Test System: AMES SALMONELLA TYPHIMURIUM, Strain/Indicator: TA1535, Metabolic Activation: NONE, Method: PREINCUBATION
  mutagenic call: inactive; negative
[4]
  mutagenic call: inactive; negative
Test System: AMES SALMONELLA TYPHIMURIUM, Strain/Indicator: TA1535, Metabolic Activation: RAT, LIVER, S-9, AROCLOR 1254 (10%), Method: PREINCUBATION
  mutagenic call: inactive; negative
Test System: AMES SALMONELLA TYPHIMURIUM, Strain/Indicator: TA1535, Metabolic Activation: RAT, LIVER, S-9, AROCLOR 1254 (30%), Method: PREINCUBATION
  mutagenic call: inactive; negative
Test System: AMES SALMONELLA TYPHIMURIUM, Strain/Indicator: TA1535, Metabolic Activation: RAT, LIVER, S-9, AROCLOR 1254, Method: STANDARD PLATE
  mutagenic call: inactive; negative
Test System: AMES SALMONELLA TYPHIMURIUM, Strain/Indicator: TA1537, Metabolic Activation: HAMSTER, LIVER, S-9, AROCLOR 1254 (10%), Method: PREINCUBATION
  mutagenic call: inactive; negative
Test System: AMES SALMONELLA TYPHIMURIUM, Strain/Indicator: TA1537, Metabolic Activation: HAMSTER, LIVER, S-9, AROCLOR 1254 (30%), Method: PREINCUBATION
  mutagenic call: inactive; negative
Test System: AMES SALMONELLA TYPHIMURIUM, Strain/Indicator: TA1537, Metabolic Activation: NONE, Method: PREINCUBATION
  mutagenic call: inactive; negative
[5]
  mutagenic call: inactive; negative
Test System: AMES SALMONELLA TYPHIMURIUM, Strain/Indicator: TA1537, Metabolic Activation: RAT, LIVER, S-9, AROCLOR 1254 (10%), Method: PREINCUBATION
  mutagenic call: inactive; negative
Test System: AMES SALMONELLA TYPHIMURIUM, Strain/Indicator: TA1537, Metabolic Activation: RAT, LIVER, S-9, AROCLOR 1254 (30%), Method: PREINCUBATION
  mutagenic call: inactive; negative
Test System: AMES SALMONELLA TYPHIMURIUM, Strain/Indicator: TA1537, Metabolic Activation: RAT, LIVER, S-9, AROCLOR 1254, Method: STANDARD PLATE
  mutagenic call: inactive; negative
Test System: AMES SALMONELLA TYPHIMURIUM, Strain/Indicator: TA1538, Metabolic Activation: NONE, Method: STANDARD PLATE
  mutagenic call: inactive; negative
Test System: AMES SALMONELLA TYPHIMURIUM, Strain/Indicator: TA1538, Metabolic Activation: RAT, LIVER, S-9, AROCLOR 1254, Method: STANDARD PLATE
  mutagenic call: inactive; negative
Test System: CHINESE HAMSTER OVARY, Strain/Indicator: CHO-K1-BH4, Metabolic Activation: NONE
  mutagenic call: inactive; negative
Test System: CHINESE HAMSTER OVARY, Strain/Indicator: CHO-K1-BH4, Metabolic Activation: RAT, LIVER, S-9, AROCLOR 1254
  mutagenic call: inactive; negative

## CC(=O)N1CCc2cc([N+](=O)[O-])ccc21
End Point: IN VITRO CHROMOSOMAL ABERRATIONS, Test System: CHL CELLS, Metabolic Activation: RAT, LIVER, S-9, SODIUM PHENOBARBITAL AND 5,6-BENZOFLAVONE
  mutagenic call: inactive; negative

## COc1cc(O)c2c(c1)Cc1cc(C)cc(O)c1C2=O
[5]
  mutagenic call: inactive; negative
Test System: AMES SALMONELLA TYPHIMURIUM, Strain/Indicator: TA1537, Metabolic Activation: S-9, Method: STANDARD PLATE
  mutagenic call: active; positive

## O=C1CCO1
[3]
  mutagenic call: active; positive
Test System: AMES SALMONELLA TYPHIMURIUM, Strain/Indicator: TA100, Metabolic Activation: RAT, LIVER, S-9, KC500 OR PHENOBARBITAL, Method: LIQUID SUSPENSION
  mutagenic call: active; positive
[4]
  mutagenic call: active; positive
Test System: CHINESE HAMSTER V-79, Strain/Indicator: V-79/6-THIOGUANINE, Metabolic Activation: NONE, Method: FLASK ASSAY
  mutagenic call: active; positive
Test System: MOUSE LYMPHOMA, Strain/Indicator: L5178Y (TK+/TK-), Metabolic Activation: NONE, Method: SUSPENSION/PLATE
  mutagenic call: active; positive
Test System: MOUSE LYMPHOMA, Strain/Indicator: L5178Y (TK+/TK-), Metabolic Activation: RAT, LIVER, S-9, AROCLOR 1254, Method: SUSPENSION/PLATE
  mutagenic call: active; positive
Test System: UDS HUMAN FIBROBLASTS, Strain/Indicator: THY INCORP (NON-S-PHASE), Metabolic Activation: NONE, Method: LIQUID SCINTILLATION COUNTING
  mutagenic call: active; positive
Test System: UDS HUMAN LYMPHOCYTES, Strain/Indicator: THY INCORP (NON-S-PHASE), Metabolic Activation: NONE, Method: LIQUID SCINTILLATION COUNTING
  mutagenic call: active; positive
Test System: UDS RODENT PRIMARY CELLS, Strain/Indicator: THY INCORP (NON-S-PHASE), Metabolic Activation: NONE, Method: AUTORADIOGRAPHY
  mutagenic call: active; positive

## O=[N+]([O-])c1ccc2c3c4c(cccc4c4ccccc4c13)C1OC21 (centres undefined)
Test System: AMES SALMONELLA TYPHIMURIUM, Strain/Indicator: TA98(1,8-DNP6), Metabolic Activation: NONE, Method: STANDARD PLATE
  mutagenic call: inactive; negative
Test System: AMES SALMONELLA TYPHIMURIUM, Strain/Indicator: TA98(1,8-DNP6), Metabolic Activation: RAT, LIVER, S-9, AROCLOR 1254, Method: STANDARD PLATE
  mutagenic call: inactive; negative
Test System: AMES SALMONELLA TYPHIMURIUM, Strain/Indicator: TA98(NR), Metabolic Activation: NONE, Method: STANDARD PLATE
  mutagenic call: inactive; negative
Test System: AMES SALMONELLA TYPHIMURIUM, Strain/Indicator: TA98(NR), Metabolic Activation: RAT, LIVER, S-9, AROCLOR 1254, Method: STANDARD PLATE
  mutagenic call: inactive; negative
[1]
  mutagenic call: active; positive
[2]
  mutagenic call: active; positive

## Cc1c2c(c(C)c3c1ccc1ccccc13)[C@@H]1OC1[C@@H](O)[C@@H]2O (some centres undefined)
Test System: CHINESE HAMSTER V-79, Strain/Indicator: V-79/OUABAIN, Metabolic Activation: CELL-MEDIATED, Method: STANDARD PLATE
  mutagenic call: active; positive
